Patent US9834518B2, “Compounds for inhibiting cell proliferation in EGFR-driven cancers” (ARIAD Pharmaceuticals, Inc., priority 2011, dated 2017)

Experiments:
BAF3 PARENTAL = experiment: Cell proliferation (MTT), BAF3 parental; assay type: cell-based; conditions: Mus musculus
Description: (§1) We also assessed the antiproliferative activity of compounds of Formula (I) against BaF3 cells expressing the target EGFR mutations or control (i.e., cell lines expressing wildtype EGFR). Assays were conducted using MTT.

[1] = molecular target: BAF3 EGFR DEL T790M PURO POOL (Homo sapiens, UniProt P00533, DEL746-750/T790M, cells depend on it); experiment: Cell proliferation (MTT), BAF3 EGFR DEL T790M; assay type: cell-based
Description: as §1

[2] = molecular target: EGFR bearing the L858R mution (Homo sapiens, UniProt P00533, L858R); experiment: Kinase inhibition, EGFR L858R; assay type: biochemical; conditions: 10 μM ATP; 10 pt curves, 3 μM top concentration (singlicates)
Description: (§2) Kinase inhibitory activity of the compounds was measured against human EGFR (native sequence) and against EGFR bearing the L858R mution and the L858R/T790M double mutation (EGFR, L858R, and L858R/T790M, respectively in Table 1). Additional assays can be conducted with EGFR deletion mutants such as delE746-A750 with or without the additional T790M mutation. Assay conditions included 10 pt curves with 3 μM top concentration (singlicates) and 10 μM ATP.

[3] = molecular target: human EGFR (native sequence) (Homo sapiens, UniProt P00533); experiment: Kinase inhibition, human EGFR (native sequence); assay type: biochemical; conditions: 10 μM ATP; 10 pt curves, 3 μM top concentration (singlicates)
Description: as §2

[4] = test system: BAF3 EGFR L858R-T790M PURO POOL; experiment: Cell proliferation (MTT), BAF3 EGFR L858R-T790M; assay type: cell-based; conditions: Ba/F3 EGFR
Description: as §1

[5] = molecular target: EGFR bearing the L858R/T790M double mutation (Homo sapiens, UniProt P00533, L858R/T790M); experiment: Kinase inhibition, EGFR L858R/T790M; assay type: biochemical; conditions: 10 μM ATP; 10 pt curves, 3 μM top concentration (singlicates)
Description: as §2

Chain of BAF3 EGFR DEL T790M PURO POOL (P00533 with tags, fused parts or gaps DEL746-750/T790M): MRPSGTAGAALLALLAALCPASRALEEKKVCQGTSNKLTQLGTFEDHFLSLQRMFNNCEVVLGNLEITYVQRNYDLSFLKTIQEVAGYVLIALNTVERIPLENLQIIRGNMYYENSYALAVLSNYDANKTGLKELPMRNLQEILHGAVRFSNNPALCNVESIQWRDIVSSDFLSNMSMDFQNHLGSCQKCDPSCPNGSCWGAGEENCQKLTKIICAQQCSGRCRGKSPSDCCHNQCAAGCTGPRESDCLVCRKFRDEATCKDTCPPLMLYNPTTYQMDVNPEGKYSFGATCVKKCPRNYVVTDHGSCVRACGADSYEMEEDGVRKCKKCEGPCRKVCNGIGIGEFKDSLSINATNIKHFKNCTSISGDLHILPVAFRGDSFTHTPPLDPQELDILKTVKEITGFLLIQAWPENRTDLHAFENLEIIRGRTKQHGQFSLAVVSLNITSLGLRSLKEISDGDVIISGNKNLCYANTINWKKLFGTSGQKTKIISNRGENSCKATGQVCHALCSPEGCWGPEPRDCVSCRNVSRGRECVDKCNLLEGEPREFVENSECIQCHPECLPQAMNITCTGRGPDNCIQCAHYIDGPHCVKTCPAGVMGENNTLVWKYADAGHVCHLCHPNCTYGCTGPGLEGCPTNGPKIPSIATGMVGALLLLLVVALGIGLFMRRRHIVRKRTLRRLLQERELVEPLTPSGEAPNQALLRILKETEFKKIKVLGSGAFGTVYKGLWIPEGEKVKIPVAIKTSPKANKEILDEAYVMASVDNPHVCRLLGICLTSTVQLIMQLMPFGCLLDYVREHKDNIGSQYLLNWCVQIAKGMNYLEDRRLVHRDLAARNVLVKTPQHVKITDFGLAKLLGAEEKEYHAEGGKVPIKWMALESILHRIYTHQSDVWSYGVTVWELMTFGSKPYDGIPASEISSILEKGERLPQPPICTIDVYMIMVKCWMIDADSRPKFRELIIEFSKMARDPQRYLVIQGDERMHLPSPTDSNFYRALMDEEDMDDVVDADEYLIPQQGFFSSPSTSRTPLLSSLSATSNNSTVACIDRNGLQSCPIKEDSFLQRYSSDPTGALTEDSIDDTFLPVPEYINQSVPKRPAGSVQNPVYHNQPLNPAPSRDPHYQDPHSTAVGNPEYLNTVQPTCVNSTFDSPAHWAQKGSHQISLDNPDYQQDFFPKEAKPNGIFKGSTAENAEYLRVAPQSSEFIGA
Chain of human EGFR (native sequence) (P00533 25-1210): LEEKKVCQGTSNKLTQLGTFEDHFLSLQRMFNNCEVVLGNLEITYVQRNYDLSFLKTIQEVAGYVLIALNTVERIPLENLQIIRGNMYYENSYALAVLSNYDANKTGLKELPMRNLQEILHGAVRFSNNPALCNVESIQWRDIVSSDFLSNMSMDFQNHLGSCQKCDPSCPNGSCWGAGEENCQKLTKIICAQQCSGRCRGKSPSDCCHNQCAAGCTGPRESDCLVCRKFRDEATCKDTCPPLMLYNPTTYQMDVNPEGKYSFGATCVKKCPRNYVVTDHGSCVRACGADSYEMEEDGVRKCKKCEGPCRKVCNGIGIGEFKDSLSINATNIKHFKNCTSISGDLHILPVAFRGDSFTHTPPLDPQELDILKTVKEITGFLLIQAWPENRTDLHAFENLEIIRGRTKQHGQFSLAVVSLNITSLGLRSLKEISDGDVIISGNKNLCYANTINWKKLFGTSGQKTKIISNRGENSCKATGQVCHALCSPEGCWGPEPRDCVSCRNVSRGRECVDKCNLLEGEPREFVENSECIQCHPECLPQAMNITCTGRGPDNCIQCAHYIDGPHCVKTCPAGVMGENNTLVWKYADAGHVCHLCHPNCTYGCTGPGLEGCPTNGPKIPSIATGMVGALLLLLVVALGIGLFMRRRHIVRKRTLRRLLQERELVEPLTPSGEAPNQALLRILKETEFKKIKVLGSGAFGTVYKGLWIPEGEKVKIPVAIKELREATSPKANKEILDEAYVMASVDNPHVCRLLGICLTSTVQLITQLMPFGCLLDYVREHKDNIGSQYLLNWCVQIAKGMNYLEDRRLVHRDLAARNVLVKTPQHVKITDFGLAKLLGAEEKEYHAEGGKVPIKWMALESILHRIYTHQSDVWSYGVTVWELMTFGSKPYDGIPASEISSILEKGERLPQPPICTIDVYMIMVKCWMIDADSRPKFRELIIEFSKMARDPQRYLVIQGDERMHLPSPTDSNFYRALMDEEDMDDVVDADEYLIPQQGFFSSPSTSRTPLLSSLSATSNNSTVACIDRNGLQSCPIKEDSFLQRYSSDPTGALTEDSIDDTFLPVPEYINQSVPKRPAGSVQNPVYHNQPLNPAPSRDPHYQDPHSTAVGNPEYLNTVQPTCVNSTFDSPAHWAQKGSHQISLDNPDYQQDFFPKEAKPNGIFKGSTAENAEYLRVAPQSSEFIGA
Chain of EGFR bearing the L858R/T790M double mutation (P00533 25-1210 T790M/L858R): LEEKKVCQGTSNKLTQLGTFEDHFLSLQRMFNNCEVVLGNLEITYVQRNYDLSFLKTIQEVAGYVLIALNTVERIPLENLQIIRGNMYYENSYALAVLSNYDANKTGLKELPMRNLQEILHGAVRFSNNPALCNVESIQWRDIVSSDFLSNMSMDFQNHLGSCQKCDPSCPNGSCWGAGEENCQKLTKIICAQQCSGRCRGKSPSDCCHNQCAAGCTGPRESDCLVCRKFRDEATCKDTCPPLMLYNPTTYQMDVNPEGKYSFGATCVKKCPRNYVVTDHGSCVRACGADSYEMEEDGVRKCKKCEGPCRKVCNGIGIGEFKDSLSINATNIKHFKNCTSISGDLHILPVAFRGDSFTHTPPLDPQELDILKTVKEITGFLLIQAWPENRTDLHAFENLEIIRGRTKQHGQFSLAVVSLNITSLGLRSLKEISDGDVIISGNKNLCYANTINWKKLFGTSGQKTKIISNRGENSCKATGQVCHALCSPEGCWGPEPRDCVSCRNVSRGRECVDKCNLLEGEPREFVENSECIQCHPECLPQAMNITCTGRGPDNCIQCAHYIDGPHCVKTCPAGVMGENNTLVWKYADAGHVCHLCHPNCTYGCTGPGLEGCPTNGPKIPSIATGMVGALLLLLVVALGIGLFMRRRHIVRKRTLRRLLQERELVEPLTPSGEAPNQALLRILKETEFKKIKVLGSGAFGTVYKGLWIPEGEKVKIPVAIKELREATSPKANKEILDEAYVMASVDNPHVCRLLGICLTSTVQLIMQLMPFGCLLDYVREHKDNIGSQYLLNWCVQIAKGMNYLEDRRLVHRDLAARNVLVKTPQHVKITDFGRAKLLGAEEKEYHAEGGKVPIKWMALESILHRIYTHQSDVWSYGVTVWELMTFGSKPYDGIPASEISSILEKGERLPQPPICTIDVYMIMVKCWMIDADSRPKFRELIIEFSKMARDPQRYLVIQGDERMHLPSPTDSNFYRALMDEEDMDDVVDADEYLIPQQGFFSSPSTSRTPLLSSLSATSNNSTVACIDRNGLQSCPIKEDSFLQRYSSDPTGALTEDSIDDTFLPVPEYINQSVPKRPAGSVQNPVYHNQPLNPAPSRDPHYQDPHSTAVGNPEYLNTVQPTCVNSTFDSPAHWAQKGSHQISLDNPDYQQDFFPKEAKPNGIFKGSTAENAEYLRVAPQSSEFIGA
Chain of EGFR bearing the L858R mution (P00533 25-1210 L858R): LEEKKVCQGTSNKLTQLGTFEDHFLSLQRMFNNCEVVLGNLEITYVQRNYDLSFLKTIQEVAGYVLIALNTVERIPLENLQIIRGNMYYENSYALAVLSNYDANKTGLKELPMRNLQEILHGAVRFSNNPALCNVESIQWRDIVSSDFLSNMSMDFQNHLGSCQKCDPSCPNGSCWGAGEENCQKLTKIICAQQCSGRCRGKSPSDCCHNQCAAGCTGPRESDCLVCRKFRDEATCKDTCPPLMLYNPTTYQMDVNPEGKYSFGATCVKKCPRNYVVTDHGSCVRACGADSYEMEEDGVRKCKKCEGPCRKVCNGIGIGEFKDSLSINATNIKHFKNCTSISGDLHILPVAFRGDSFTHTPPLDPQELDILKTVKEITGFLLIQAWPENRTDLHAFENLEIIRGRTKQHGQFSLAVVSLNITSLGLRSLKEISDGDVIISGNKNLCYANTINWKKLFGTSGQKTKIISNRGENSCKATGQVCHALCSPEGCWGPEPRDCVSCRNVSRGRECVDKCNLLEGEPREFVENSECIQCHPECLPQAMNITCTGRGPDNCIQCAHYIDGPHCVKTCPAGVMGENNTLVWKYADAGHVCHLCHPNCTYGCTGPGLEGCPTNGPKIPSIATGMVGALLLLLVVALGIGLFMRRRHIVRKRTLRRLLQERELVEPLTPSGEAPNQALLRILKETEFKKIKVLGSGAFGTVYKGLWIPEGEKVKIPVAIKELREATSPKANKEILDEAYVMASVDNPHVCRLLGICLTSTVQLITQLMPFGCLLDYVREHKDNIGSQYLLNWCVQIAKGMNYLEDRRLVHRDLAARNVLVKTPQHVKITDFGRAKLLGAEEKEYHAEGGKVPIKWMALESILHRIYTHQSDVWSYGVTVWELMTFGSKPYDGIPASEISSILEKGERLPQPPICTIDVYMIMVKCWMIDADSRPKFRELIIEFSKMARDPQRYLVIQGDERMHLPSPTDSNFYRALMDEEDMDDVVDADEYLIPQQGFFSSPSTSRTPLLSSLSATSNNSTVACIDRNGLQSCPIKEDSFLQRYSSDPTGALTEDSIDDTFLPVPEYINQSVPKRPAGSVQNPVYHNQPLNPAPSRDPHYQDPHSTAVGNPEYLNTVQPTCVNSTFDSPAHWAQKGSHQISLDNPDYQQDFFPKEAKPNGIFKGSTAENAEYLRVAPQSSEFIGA

Row | IC50 [1] | IC50 [2] | IC50 [3] | IC50 [4] | IC50 [5] | SMILES | IC50 (BAF3 PARENTAL)
1 | < 51 nM | < 51 nM | < 51 nM | < 51 nM | < 51 nM | C=CC(=O)Nc1ccc(OC)c(Nc2ncc(Br)c(Nc3ccccc3P(C)(C)=O)n2)c1 [Example 12, N-(3-((5-bromo-4-((2-(dimethylphosphoryl)phenyl)amino)pyrimidin-2-yl)amino)-4-methoxyphenyl)acrylamide] | ≥ 250 nM
2 | 101 to 250 nM | 51 to 100 nM | ≥ 250 nM | ≥ 250 nM | < 51 nM | C=CC(=O)Nc1ccc(OC)c(Nc2nccc(Nc3ccccc3P(C)(C)=O)n2)c1 [Example 13, N-(3-((4-((2-(dimethylphosphoryl)phenyl)amino)pyrimidin-2-yl)amino)-4-methoxyphenyl)acrylamide] | ≥ 250 nM
3 | < 51 nM | < 51 nM | 51 to 100 nM | < 51 nM | < 51 nM | C=CC(=O)Nc1ccc(OC)c(Nc2ncc(Cl)c(Nc3cccc(C)c3P(C)(C)=O)n2)c1 [Example 14, N-(3-((5-chloro-4-((2-(dimethylphosphoryl)-3-methylphenyl)amino)pyrimidin-2-yl)amino)-4-methoxyphenyl)acrylamide] | ≥ 250 nM
4 | < 51 nM | < 51 nM | < 51 nM | < 51 nM | < 51 nM | C=CC(=O)Nc1ccc(OC)c(Nc2ncc(Cl)c(Nc3ccccc3P(=O)(CC)CC)n2)c1 [Example 15, N-(3-((5-chloro-4-((2-(diethylphosphoryl)phenyl)amino)pyrimidin-2-yl)amino)-4-methoxyphenyl)acrylamide] | ≥ 250 nM
5 | < 51 nM | < 51 nM | < 51 nM | < 51 nM | < 51 nM | C=C(CN(C)C)C(=O)Nc1ccc(OC)c(Nc2ncc(Cl)c(Nc3ccccc3P(C)(C)=O)n2)c1 [Example 17, N-(3-((5-chloro-4-((2-(dimethylphosphoryl)phenyl)amino)pyrimidin-2-yl)amino)-4-methoxyphenyl)-2-((dimethylamino)methyl)acrylamide] | ≥ 250 nM
6 | < 51 nM | < 51 nM | 51 to 100 nM | 51 to 100 nM | < 51 nM | C=CC(=O)Nc1cc(Nc2ncc(Cl)c(Nc3ccccc3P(C)(C)=O)n2)c(OC)cc1N1CCN(C)CC1 [Example 18, N-(5-((5-chloro-4-((2-(dimethylphosphoryl)phenyl)amino)pyrimidin-2-yl)amino)-4-methoxy-2-(4-methylpiperazin-1-yl)phenyl)acrylamide] | ≥ 250 nM
7 | < 51 nM | < 51 nM | < 51 nM | < 51 nM | < 51 nM | C=CC(=O)Nc1cc(Nc2ncc(Cl)c(Nc3ccccc3P(C)(C)=O)n2)c(OC)cc1OCCN(C)C [Example 19, N-(5-((5-chloro-4-((2-(dimethylphosphoryl)phenyl)amino)pyrimidin-2-yl)amino)-2-(2-(dimethylamino)ethoxy)-4-methoxyphenyl)acrylamide] | ≥ 250 nM
8 | < 51 nM | < 51 nM | ≥ 250 nM | 101 to 250 nM | < 51 nM | C=CC(=O)Nc1cc(Nc2ncc(Cl)c(Nc3ccccc3P(C)(C)=O)n2)c(OC)cc1OC [Example 20, N-(5-((5-chloro-4-((2-(dimethylphosphoryl)phenyl)amino)pyrimidin-2-yl)amino)-2,4-dimethoxyphenyl)acrylamide] | ≥ 250 nM
9 | 101 to 250 nM | 101 to 250 nM | ≥ 250 nM | ≥ 250 nM | 51 to 100 nM | C=CC(=O)N(CCCN(C)C)c1ccc(OC)c(Nc2ncc(Cl)c(Nc3ccccc3P(C)(C)=O)n2)c1 [Example 21, N-(3-((5-chloro-4-((2-(dimethylphosphoryl)phenyl)amino)pyrimidin-2-yl)amino)-4-methoxyphenyl)-N-(3-(dimethylamino)propyl)acrylamide] | ≥ 250 nM
10 | < 51 nM | < 51 nM | < 51 nM | < 51 nM | < 51 nM | C=CC(=O)Nc1cc(Nc2ncc(Cl)c(Nc3ccccc3P(C)(C)=O)n2)c(OC)cc1F [Example 22] | ≥ 250 nM
11 | ≥ 250 nM | < 51 nM | ≥ 250 nM | 101 to 250 nM | < 51 nM | C=CC(=O)Nc1cc(Nc2ncc(Cl)c(Nc3ccccc3P(C)(C)=O)n2)c(OC)cc1OC1CCOC1 (stereo not drawn) [Example 24, N-(5-((5-chloro-4-((2-(dimethylphosphoryl)phenyl)amino)pyrimidin-2-yl)amino)-4-methoxy-2-((tetrahydrofuran-3-yl)oxy)phenyl)acrylamide] | ≥ 250 nM
12 | < 51 nM | < 51 nM | ≥ 250 nM | 51 to 100 nM | < 51 nM | C=CC(=O)Nc1cc(Nc2ncc(Cl)c(Nc3ccccc3P(C)(C)=O)n2)c(OC)cc1OCCOC [Example 25, N-(5-((5-chloro-4-((2-(dimethylphosphoryl)phenyl)amino)pyrimidin-2-yl)amino)-4-methoxy-2-(2-methoxyethoxy)phenyl)acrylamide] | ≥ 250 nM
13 | < 51 nM | 101 to 250 nM | ≥ 250 nM | 51 to 100 nM | 101 to 250 nM | C=CC(=O)N(C(=O)C=C)c1ccc(OC)c(Nc2ncc(Cl)c(Nc3ccccc3P(C)(C)=O)n2)c1 [Example 26, N-acryloyl-N-(3-((5-chloro-4-((2-(dimethylphosphoryl)phenyl)amino)pyrimidin-2-yl)amino)-4-methoxyphenyl)acrylamide] | ≥ 250 nM
14 | < 51 nM | < 51 nM | < 51 nM | < 51 nM | < 51 nM | C=CC(=O)Nc1cc(Nc2ncc(Cl)c(Nc3ccccc3P(C)(C)=O)n2)c(OC)cc1OC(COC)CN(CC)CC (stereo not drawn) [Example 27] | ≥ 250 nM
15 | < 51 nM | < 51 nM | < 51 nM | < 51 nM | < 51 nM | C=CC(=O)Nc1cc(Nc2ncc(Cl)c(Nc3ccccc3P(C)(C)=O)n2)c(OC)cc1OC(COC)CN(C)C (stereo not drawn) [Example 28, N-(5-((5-chloro-4-((2-(dimethylphosphoryl)phenyl)amino)pyrimidin-2-yl)amino)-2-((1-(dimethylamino)-3-methoxypropan-2-yl)oxy)-4-methoxyphenyl)acrylamide] | ≥ 250 nM
16 | < 51 nM | < 51 nM | ≥ 250 nM | 51 to 100 nM | < 51 nM | C=CC(=O)Nc1cc(Nc2ncc(Cl)c(Nc3ccccc3P(C)(C)=O)n2)c(OC)cc1N1CCOCC1 [Example 32, N-(5-((5-chloro-4-((2-(dimethylphosphoryl)phenyl)amino)pyrimidin-2-yl)amino)-4-methoxy-2-morpholinophenyl)acrylamide] | ≥ 250 nM
17 | < 51 nM | < 51 nM | < 51 nM | < 51 nM | < 51 nM | C=CC(=O)Nc1cc(Nc2ncc(Cl)c(Nc3ccccc3P(C)(C)=O)n2)c(OC)cc1N(C)CCN(CC)CC [Example 33, N-(5-((5-chloro-4-((2-(dimethylphosphoryl)phenyl)amino)pyrimidin-2-yl)amino)-2-((2-(diethylamino)ethyl)(methyl)amino)-4-methoxyphenyl)acrylamide] | ≥ 250 nM
18 | < 51 nM | 101 to 250 nM | ≥ 250 nM | 101 to 250 nM | 51 to 100 nM | C=CC(=O)Nc1cc(Nc2ncc(Cl)c(Nc3ccccc3P(C)(C)=O)n2)c(OC)cc1N(C)CCCN(C)C [Example 34, N-(5-((5-chloro-4-((2-(dimethylphosphoryl)phenyl)amino)pyrimidin-2-yl)amino)-2-((3-(dimethylamino)propyl)(methyl)amino)-4-methoxyphenyl)acrylamide] | ≥ 250 nM
19 | < 51 nM | < 51 nM | < 51 nM | < 51 nM | < 51 nM | C=C(CN(C(C)C)C(C)C)C(=O)Nc1ccc(OC)c(Nc2ncc(Cl)c(Nc3ccccc3P(C)(C)=O)n2)c1 [Example 35, N-(3-((5-chloro-4-((2-(dimethylphosphoryl)phenyl)amino)pyrimidin-2-yl)amino)-4-methoxyphenyl)-2-((diisopropylamino)methyl)acrylamide] | ≥ 250 nM
20 | < 51 nM | < 51 nM | < 51 nM | < 51 nM | < 51 nM | C=CC(=O)Nc1cc(Nc2ncc(Cl)c(Nc3ccccc3P(C)(C)=O)n2)c(OC)cc1OCC(COC)N(C)C (stereo not drawn) [Example 37, N-(5-((5-chloro-4-((2-(dimethylphosphoryl)phenyl)amino)pyrimidin-2-yl)amino)-2-(2-(dimethylamino)-3-methoxypropoxy)-4-methoxyphenyl)acrylamide] | ≥ 250 nM
21 | < 51 nM | < 51 nM | < 51 nM | < 51 nM | < 51 nM | C=CC(=O)Nc1cc(Nc2ncc(Cl)c(Nc3ccccc3P(C)(C)=O)n2)c(OC)cc1N(C)CCN(C)CCOC [Example 38, N-(5-((5-chloro-4-((2-(dimethylphosphoryl)phenyl)amino)pyrimidin-2-yl)amino)-4-methoxy-2-((2-((2-methoxyethyl)(methyl)amino)ethyl)(methyl)amino)phenyl)acrylamide] | ≥ 250 nM
